The conditions of data set [1]: measured previously in the literature; cited from earlier work.
The test system of data set [2] is spontaneously hypertensive rat (SHR). The experiment in a line: Acute antihypertensive response (MAP, HR) to graded intravenous doses in anesthetized SHR. The conditions noted are these: for acute change in MAP and HR: graded intravenous doses (nitroxides 17-270 μmol/kg; SOD 34-540 U/kg); for ED50 (sensitivity) for changes in MAP and HR: intravenous. Type of data set: in vivo. As to the method: Experiments were approved by the Georgetown University Animal Care and Use Committee. Male SHR weighing 250-350 g (Taconic, Germantown, N.Y.) were anesthetized with thiobutabarbital (Inactin; Sigma, St. Louis, Mo.) (10 mg/100 g) after halothane (Halocarbon Laboratories, River Edge, N.J.) induction. Rats received 0.9% NaCl at 2 ml/h IV up to the time of receiving drugs to maintain euvolemia. A femoral artery was cannulated with polyethelene (PE)-50 tubing connected to a digital blood pressure analyzer (Micro-Med, Louisville, Ky.). Animals were equilibrated for 45 min. Thereafter, a nitroxide (17 μmol/kg) was infused intravenously over 10 s. The mean arterial pressure (MAP) and heart rate (HR) were recorded over the first 5 min and at 10 and 15 min. This was followed by doses of 54, 72, 174, and 270 μmol/kg under similar conditions. The same protocol was followed with each nitroxide: T, 4-oxo-tempo (OT), 4-amino-tempo (AT), 3-carboxy-peroxyl (3-CTPY) (Aldrich, Milwaukee, Wis.), 3-carbomyl-proxyl (3-CP) (Sigma), and 4-trimethylammonium-2,2,6,6,-tetramethylpiperidine-1-oxyl iodide (CAT-1) (Molecular Probes, Eugene, Oreg.) (FIG. 3). Doses of bovine Cu/Zn SOD (MW 32,500; Oxis Research, Portland, Oreg.) were selected that had equivalent SOD mimetic activity in vitro to the doses of T used for intravenous studies: 34, 110, 140, 260, 350, and 540 U/kg. SOD injection followed a similar protocol to the nitroxides and was compared with vehicle-injected rats. Additional rats received injections of previously boiled SOD as a further control group. Six rats were studied in each group.
The mean±SE changes in MAP and HR were calculated from the individual dose-response relations. The responsiveness was the maximum effect, and the sensitivity was the expected dose for ED50. Data were analyzed by ANOVA with post hoc testing by the Dunnett test, where appropriate. Statistical significance was taken as P<0.05.

In data set [3] the test system is O2−. generated by xanthine plus xanthine oxidase. Kind of data set: Inhibition of O2−. generated by xanthine-xanthine oxidase in vitro (SOD mimetic activity, lucigenin chemiluminescence). As to conditions: for Maximum inhibition, %: O2−. generated by xanthine-xanthine oxidase in vitro, means ± SE, 5 studies; for O2−. generated by a xanthine-xanthine oxidase reaction extinguished: tested in PBS at 10^−4 M. It counts as biochemical. As to the method:
(§1) The SOD activities of Ns were evaluated in vitro for their efficacy in dampening O2^−. generated by xanthine (25 μmol/l) plus xanthine oxidase (9 IU/ml). Their lipid solubility was assessed by shaking the Ns in a 50:50 mixture of PBS (Ambion, Austin, Tex.) and chloroform (CHCl3; EM Science, Gibbstown, N.J.), taking an aliquot of the PBS phase, evaporating the CHCl3phase to dryness, reconstituting it in PBS, and assessing the SOD activities in the two solutions. O2^−. was assessed by chemiluminescence with 5 μM lucigenin (AutoLumatPlus LB 953; EG&G, Berthold, Germany). The reduction in the stable peak value for chemiluminescence for each N, relative to vehicle, defined the SOD mimetic activity.
SOD activity by the nitroxides was assessed in vitro (Table 1). […] The ratio of the activity that partitioned into CHCl3 compared with PBS was examined.

Another data set relates to cell membranes. As to conditions: cited from earlier work.
Data set [4] in a line: Lipid solubility: partition of SOD activity between CHCl3 and PBS. It counts as physicochemical. As to conditions: 50:50 PBS and chloroform. As to the method:
as §1

Data set [5] deals with mesenteric resistance arteries (MRAs) from EC-SOD −/− and +/+ mice. Kind of data set: Superoxide as ethidium:DHE ratio (E/D) in dihydroethidium-loaded mesenteric resistance arteries. The text has this: (§2) Reactive oxygen spice (ROS) and endothelin-1 (ET-1) contribute to angiotensin-induced hypertension. We used isolated mesenteric resistance arteries (MRAs) from EC-SOD knockout (−/−) mice (n=10) and EC-SOD wild type (+/+) mice (n=10), as a model to investigate the hypothesis that microvascular ET-1 and superoxide anion (O2.^−) interact to enhance contractility. Tension and O2.^− were quantitated in real time in dihydroethidium (DHE)-loaded MRAs in a myograph equipped with a dual-emission photon detection fluorescence system to measure ethidium (Eth): DHE ratio (E/D) as a direct readout of O2.^− activity. […] PEG-SOD normalized augmented ET-1 contraction (64±4% vs 71±3%; p=ns) and prevent an increase in E/D ratio in MRAs from −/− (0.6±0.5 vs 0.5±0.8, p=ns). In summary, ET-1 generates microvascular O2.^− that enhances its vasoconstrictive action.
A current study contrasts the responses to endothelin-1 (ET-1) in mesenteric resistance vessels from EC-SOD (−/−) and (+/+) mice. […] Parallel studies of vascular superoxide in dihydroethidium-loaded vessels show enhanced conversion to ethidium, indicating enhanced superoxide formation, in vessels from EC-SOD −/−mice. […] We conclude that in the model system of SOD deficiency caused by gene deletion of EC-SOD in the mouse, tempol can correct enhanced contractions and enhanced oxidative stress. It is thereby envisioned as being effective in preventing hypertension and cardiovascular disease.

Data set [6] shares this test system. The experiment in a line: Contraction of isolated mesenteric resistance arteries (myograph). The procedure:
FIG. 19: Responses of mouse isolated mesenteric resistance vessles to endothelin-1: comparison of EC-SOD +/+ with −/−. (A) Contraction to endothelin-1, (B) Superoxide production with endothelin-1. Mean±SEM values (n=6-8 per group). Response to endothelin-1 in vessels incubated for 20 min with vehicle, tempol (10^−4 M), PEG-SOD (100 units·ml^−1), and catalase (300 units·ml^−1). Compared to vehicle, ***, p<0.005.
as §2

For data set [7] the following is noted: cited from earlier work.
Data set [8] concerns EC-SOD +/+ and −/− mice. Kind of data set: MAP of anesthetized mice (direct arterial cannulation) during Ang II infusion. Type of data set: in vivo, mouse. The conditions noted are these: 400 ng·kg^−1·min^−1. The procedure: Cannulae were placed in the jugular vein (for infusion of fluids and renal function markers), the femoral artery (for direct measurement of MAP and HR), and the bladder (for the collection of urine). A tracheostomy was performed to permit free, uninterrupted respiration of room air. [^3H]-Inulin was infused at 0.1 μCi^−1 hr^−1 for the measurement of glomerular filtration rate. [^14C]-Para-amino hippurate (PAH) was infused at 0.2 μCi^−1 hr^−1. Blood was collected from the femoral artery and renal vein at the end of the collection period to measure hematocrit and renal PAH extraction. Renal plasma flow (RPF) was calculated from the clearance of PAH factored by its renal extraction. Renal blood flow was calculated from RPF factored by (1-hematocrit). Renal vascular resistance (RVR) was calculated from MAP factored by RBF. In separate groups, plasma was obtained, and the aorta and kidneys were harvested and prepared for further analysis.

Data set [9] has as its system EC-SOD +/+ and −/− mice. The experiment in a line: MAP of conscious mice by telemetry during subcutaneous Ang II infusion. It counts as in vivo, mouse. The conditions noted are these: for MAP during Ang II infusion: 400 ng/kg per minute subcutaneously, 2 weeks; for Change in MAP with Ang II (mmHg) / MAP on day 12 of Ang II (mmHg): conscious, telemetry. The text has this:
For the first series, mice were instrumented with indwelling radiotelemeters (DSI) connected to a cather in a carotid artery and placed within the abdomen 2 weeks before placement of osmotic minipumps as described previously (Kawada N, et al. 2002 J Am Soc Nephrol 13 :2860-2868). Mice were anesthetized with isoflurane (1.0 to 1.5% in 100% O2) before insertion of telemeters and allowed to recover from the surgery for 12 days before the start of BP recording. Basal recordings of MAP and heart rate (HR) were measured continuously by telemetry for 3 days. Thereafter, mice were anesthetized with isoflurane for insertion of osmotic minipumps (Direct Corp) to deliver Ang II (400 ng^−1 kg^−1 per minute) or vehicle (Veh) subcutaneously for 2 weeks. An additional group received a higher pressor rate of Ang II infusion (1000 ng/kg^−1 min^−1, SC). The mean values for 24-hour periods are reported. For subsequent series, mice were prepared without placement of telemeters and Ang II was infused only at the slow pressor rate.

Setting [10] is: EC-SOD (+/+), 400 ng·kg^−1·min^−1.
[11] abbreviates: EC-SOD (+/+), 1000 ng·kg^−1·min^−1.
The mark [12] stands for this setting: EC-SOD (−/−), 400 ng·kg^−1·min^−1.
Where [13] appears, read: EC-SOD (−/−), 1000 ng·kg^−1·min^−1.

Data on eight molecules can be found in patent US20080015224A1, “Nitroxide superoxide dismutase mimetics to treat extracellular superoxide dismutase deficiencies” (priority 2006, published 2008).

“Also recorded” adds a separate entry of the source. Where no end group is shown, it is not given here.

As to `CC1(C)CC(N)CC(C)(C)N1[O]` [AT, 4-amino-2,2,6,6-tetramethylpiperidine-1-oxyl], in data set [1], the “redox midpoint potential E1/2” value is on record as 820 mV. In [2] (graded intravenous doses), the “maximal reduction in MAP (comparison between compounds)” value (“maximal reduction in MAP” below) was “greatest reductions in MAP”. Moreover, in data set [2], the “acute change in MAP and HR” value was “graded reductions; also recorded: decreased MAP and HR acutely”; the “ED50 (sensitivity) for changes in MAP and HR” value (from here on “ED50 (sensitivity) for changes”) is reported as “highest ED50s”. For the same molecule, in data set [3], the “Maximum inhibition, %” value stood at 88 ± 2 % and the “O2−. generated by a xanthine-xanthine oxidase reaction extinguished” value (shortened to “O2−. generated”) is recorded as 88%.
As for `CC1(C)CC([N+](C)(C)C)CC(C)(C)N1[O].[I-]` [CAT-1, 4-trimethylammonium-2,2,6,6,-tetramethylpiperidine-1-oxyl iodide], the permeation of cells entry with cell membranes is “does not permeate cells”. In addition, the “redox midpoint potential E1/2” value in data set [1] was “significantly higher values still”. Besides, in data set [2] (graded intravenous doses), the “maximal reduction in MAP” value is given as “significantly more modest reductions”. In data set [2], the “acute change in MAP and HR” value was “graded reductions; also recorded: decreased MAP and HR acutely”; the “ED50 (sensitivity) for changes” value is recorded as “lowest ED50”. Also, in data set [3], the “Maximum inhibition, %” value is 42 ± 2 % and the “O2−. generated” value was “significantly lower fraction”.
As for `CC1(C)CC(C(N)=O)C(C)(C)N1[O]` (stereo not shown) [Compound 3-CP, 3-carbomoyl-proxyl], the “acute change in MAP and HR” value in data set [2] is reported as “ineffective; also recorded: did not; also recorded: does not reduce BP in vivo”. In data set [3], the “Maximum inhibition, %” value is 82 ± 1 % and the “O2−. generated” value is listed as “significantly lower fraction”.
Take `CC1(C)CC(=O)CC(C)(C)N1[O]` [OT, 4-oxo-tempo]: the “redox midpoint potential E1/2” value in [1] is recorded as 913 mV. Besides, in data set [2] (graded intravenous doses), the “maximal reduction in MAP” value was “significantly more modest reductions” and the “reduction in HR (comparison between compounds)” value is recorded as “smaller”. In [2], the “acute change in MAP and HR” value was “graded reductions; also recorded: decreased MAP and HR acutely”; the “ED50 (sensitivity) for changes” value was “highest ED50s”. Further, the “ratio of the activity that partitioned into CHCl3 compared with PBS (partition ratio)” value in data set [4] is listed as “greatest partition ratio”. Further, in data set [3], the “Maximum inhibition, %” value turned out to be 62 ± 2 % and the “O2−. generated” value is on record as “significantly lower fraction”.
For `CNC[C@H](O)c1cccc(O)c1` [Phenylephrine], in data set [5] (MRAs from both groups), the “E/D ratio with phenylephrine” value is on record as “did not change”. Further, the “Phenylephrine-induced contractions, EC-SOD −/− versus +/+” value in [6] (MRAs from both groups) is reported as “similar”.
In the case of “Cu/Zn SOD: bovine Cu/Zn SOD (MW 32,500; Oxis Research)”, the “injected SOD associated with the kidney” value in data set [7] (45 min after injection) is on record as roughly 10%. In addition, in [7] (after intravenous administration), the plasma half time is reported as 6 min. The “delay of MAP lowering versus vehicle” value in [2] (graded intravenous doses) lay within 90 to 110 min. For the same molecule, the “acute change in MAP and HR” value in data set [2] (listed as SOD) is recorded as “no acute effect; also recorded: did not”.
For “angiotensin II (DRVYIHPF; Angiotensin-2; UniProt P01019 25-32, looked up) [Ang II, pressor peptide infused subcutaneously by osmotic minipump]”, the “MAP on day 12 of Ang II (mmHg)” value is reported as 92.1 ± 3.0 mmHg with EC-SOD +/+ and −/− mice [8] (EC-SOD (+/+)); 98.4 ± 2.6 mmHg with EC-SOD +/+ and −/− mice [8] (EC-SOD (−/−)); 134.6 ± 3.3 mmHg in the data set on EC-SOD +/+ and −/− mice [9] (setting [10]); 149.1 ± 4.3 mmHg with EC-SOD +/+ and −/− mice [9] (setting [11]); 132.5 ± 4.1 mmHg in the data set on EC-SOD +/+ and −/− mice [9] (setting [12]); 149.9 ± 5.4 mmHg with EC-SOD +/+ and −/− mice [9] (setting [13]). The “MAP during Ang II infusion” value in the data set on EC-SOD +/+ and −/− mice [9] (EC-SOD +/+) is recorded as 125±3 mm Hg; with EC-SOD +/+ and −/− mice [9] (EC-SOD −/−), 124±3 mm Hg. The “Change in MAP with Ang II (mmHg)” value in the data set with EC-SOD +/+ and −/− mice [9] (setting [10]) is listed as “+24.4 ± 3.45 mmHg”; in the data set with EC-SOD +/+ and −/− mice [9] (setting [11]) it was “+35.7 ± 6.5 mmHg”; with EC-SOD +/+ and −/− mice [9] (setting [12]) it was “+16.7 ± 4.42 mmHg”; with EC-SOD +/+ and −/− mice [9] (setting [13]) it was “+30.7 ± 3.3 mmHg”.
With “endothelin-1 (CSCSSLMDKECVYFCHLDIIW; ends and bridges not checked; cysteine pairing not given here; UniProt P05305 53-73, looked up) [ET-1, vasoconstrictor peptide used to contract mesenteric resistance arteries]”, the results for the “E/D ratio (ethidium:DHE) with ET-1” value in data set [5] (MRAs from EC-SOD +/+ mice) and in [5] (MRAs from EC-SOD −/− mice) were 0.5±0.8 and 3.7±0.5, respectively. Moreover, the ET-1 induced contraction in [6] (MRAs from EC-SOD +/+ mice) was 66±5%; in data set [6] (MRAs from EC-SOD −/− mice), 100±3%.
